According to patent US20260018245A1, “SYSTEMS AND METHODS FOR IDENTIFYING AND TARGETING COLLATERAL LETHAL GENES” (The Regents of the University of Michigan, priority 2022, published 2026):

Experiments:
Assay type in all cases: cell-based
SKOV3 and OVCAR8 cells [1] = test: MTHFD2 inhibitor in cells with NNT, IDH2 or IDH3A knocked down; conditions: IDH2 or IDH3A knockdown, UQCR11-intact or -null cells, 10 μM, 72 h
Protocol: FIG. 15 Investigating metabolic consequence of Complex III impairment and activity of paralogous pathways other than oxidative MTHFD2. (a) Effect of MTHFD2 inhibitor ([…]) and uridine (50 μM) supplementation on viability of parental ovarian cancer lines that are UQCR11—intact (SKOV3) or UQCR11-null (HeyA8, OVCAR8, CAOV3). Data are representative of two independent experiments and presented as mean±s.d. (n=6). Data analyzed with one-way ANOVA with Tukey's correction for multiple comparisons. (b) Effect of MTHFD2 inhibitor and uridine supplementation on viability of isogenic SKOV3 lines expressing shScramble or shUQCR11. […] Data analyzed with one-way ANOVA with Tukey's correction for multiple comparisons. […] (n=6) and analyzed using two-tailed Student's t-test. (d) mRNA expression of NNT, IDH2, IDH3A measured via qRT-PCR after knocking down with shNNT, shIDH2, and shIDH3A, relative to scramble shRNA (shScr), verifying knockdown efficiency in SKOV3 and OVCAR8 cell-lines. […] Data analyzed using unpaired two-tailed Student's t-test. […] Data are analyzed using ordinary one-way ANOVA with multiple comparisons. […] Loss of viability calculated by comparing respective viability in vehicle control-treated cells to MTHFD2 inhibitor-treated cells. […] (n=6) and analyzed using ordinary one-way ANOVA with Dunnett's correction for multiple comparisons. Error bars are calculated using propagation of error principles.

SKOV3 and OVCAR8 cells [2] = test: De novo pyrimidine synthesis flux with [13C4]-aspartate tracer; conditions: SKOV3 and OVCAR8, with vs without MTHFD2 inhibitor
[3] = tested on: SKOV3 cells expressing shScramble or shUQCR11; test: Viability of isogenic SKOV3 lines expressing shScramble or shUQCR11 treated with MTHFD2 inhibitor; conditions: SKOV3 cells with UQCR11 knocked down vs shScramble
Excerpt: FIG. 2 Multi-objective metabolic flux analysis identifies MTHFD2 as a collateral lethal target in UQCR11-null ovarian cancers with in vitro, clinical and pan-cancer implications. a, Workflow elucidating multi-objective flux analysis algorithm comparing flux distributions of cancers with and without deletions for identification of collateral lethal pathways. b, Multi-objective metabolic Pareto frontier and metabolic fluxes of MTHFD1, MTHFD2, RNA and DNA syntheses in UQCR11-null and -intact models. Radar plots represent Pareto-optimal flux distributions from maximal biomass to maximal ATP maintenance (counterclockwise). c, mRNA expression of UQCR11 and MTHFD2 in parental ovarian cancer cell lines. Data presented as mean±s.d. (n=6), analysed using two-tailed Student's t-test. d, Protein expression of MTHFD2 and UQCR11. Representative immunoblots with β-actin as loading control. e, Cell viability after dox-induced shMTHFD2 knockdown. […] (n=3), analysed using two-way analysis of variance (ANOVA) with Dunn's correction. f, Viability of parental ovarian cancer lines treated with MTHFD2 inhibitor. […] Data analysed pairwise by log-rank test. k, Overall survival of patients with UCEC and low UQCR11 (bottom quartile) expression and high (top quartile) expression of MTHFD2 compared with patients with low UQCR11 and MTHFD2 (bottom quartile) expression. Data analysed by log-rank test. […]

Structure (SMILES): Cc1c(N2CCN(C)[C@@H](C)C2)ccc2c3c(c(=O)oc12)CN(C(=O)c1ccc(NS(C)(=O)=O)c(OC(F)(F)F)c1)CC3 [DS18561882]
- effect of MTHFD2 inhibition on viability (SKOV3 and OVCAR8 cells [1]): not influenced
- de novo pyrimidine synthesis flux (SKOV3 and OVCAR8 cells [2]): similarly reduced
- GISO concentrations [3]: significantly reduced
